Consider 16 compounds from patent US20230093099A1, “COMPOUNDS AND METHODS OF TREATING CANCERS” (CULLGEN (SHANGHAI), INC., priority 2019, published 2023).

A value given as a limit tells only on which side of the number the result lay.

In the assay the test system is RS4;11 cells. Briefly: Cell viability assay (CellTiter-Glo) in RS4;11 cells. It is filed as cell-based. The settings on record: Homo sapiens, 72 h; RS4;11 cells; cell viability, 3 days, CellTiter-Glo; read-out: IC50. The method in brief: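 Three-day compound treatment of RS4;11 ALL cells (5000/well, 3-fold dilution series of 8 or 12 points), with IC50 from a nonlinear least-squares fit to CellTiter-Glo viability data.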
With `Cc1ncsc1-c1ccc(CNC(=O)[C@@H]2C[C@@H](O)CN2C(=O)[C@@H](NC(=O)CCNC(=O)CN2CCN(c3ccc(Nc4nc5cccc(-c6ccc(S(C)(=O)=O)cc6)n5n4)cc3)CC2)C(C)(C)C)cc1` [JA-119, (2S,4R)-1-((S)-3,3-Dimethyl-2-(3-(2-(4-(4-((5-(4-(methylsulfonyl)phenyl)-[1,2,4]triazolo[1,5-a]pyridin-2-yl)amino)phenyl)piperazin-1-yl)acetamido)propanamido)butanoyl)-4-hydroxy-N-(4-(4-methylthiazol-5-yl)benzyl)pyrrolidine-2-carboxamide], the half-inhibitory concentration (IC50) (commonly the concentration that inhibits the measured activity by half) was more than 10 µM.
With `Cc1ncsc1-c1ccc(CNC(=O)[C@@H]2C[C@@H](O)CN2C(=O)[C@@H](NC(=O)CCCCCCCCCNC(=O)CN2CCN(c3ccc(Nc4nc5cccc(-c6ccc(S(C)(=O)=O)cc6)n5n4)cc3)CC2)C(C)(C)C)cc1` [JA-120, (2S,4R)-1-((S)-3,3-Dimethyl-2-(10-(2-(4-(4-((5-(4-(methylsulfonyl)phenyl)-[1,2,4]triazolo[1,5-a]pyridin-2-yl)amino)phenyl)piperazin-1-yl)acetamido)decanamido)butanoyl)-4-hydroxy-N-(4-(4-methylthiazol-5-yl)benzyl)pyrrolidine-2-carboxamide] the figure was more than 10 µM; with `Cc1ncsc1-c1ccc(CNC(=O)[C@@H]2C[C@@H](O)CN2C(=O)[C@@H](NC(=O)CCCCCCCCNC(=O)CN2CCN(c3ccc(Nc4nc5cccc(-c6ccc(S(C)(=O)=O)cc6)n5n4)cc3)CC2)C(C)(C)C)cc1` [JA-121, (2S,4R)-1-((S)-3,3-Dimethyl-2-(9-(2-(4-(4-((5-(4-(methylsulfonyl)phenyl)-[1,2,4]triazolo[1,5-a]pyridin-2-yl)amino)phenyl)piperazin-1-yl)acetamido)nonanamido)butanoyl)-4-hydroxy-N-(4-(4-methylthiazol-5-yl)benzyl)pyrrolidine-2-carboxamide], more than 10 µM; with `Cc1ncsc1-c1ccc(CNC(=O)[C@@H]2C[C@@H](O)CN2C(=O)[C@@H](NC(=O)CCCCCNC(=O)CN2CCN(c3ccc(Nc4nc5cccc(-c6ccc(S(C)(=O)=O)cc6)n5n4)cc3)CC2)C(C)(C)C)cc1` [JA-122, (2S,4R)-1-((S)-3,3-Dimethyl-2-(6-(2-(4-(4-((5-(4-(methylsulfonyl)phenyl)-[1,2,4]triazolo[1,5-a]pyridin-2-yl)amino)phenyl)piperazin-1-yl)acetamido)hexanamido)butanoyl)-4-hydroxy-N-(4-(4-methylthiazol-5-yl)benzyl)pyrrolidine-2-carboxamide], more than 10 µM.
Consider `Cc1ncsc1-c1ccc(CNC(=O)[C@@H]2C[C@@H](O)CN2C(=O)[C@@H](NC(=O)CCCCCCNC(=O)CN2CCN(c3ccc(Nc4nc5cccc(-c6ccc(S(C)(=O)=O)cc6)n5n4)cc3)CC2)C(C)(C)C)cc1` [JA-123, (2S,4R)-1-((S)-3,3-Dimethyl-2-(7-(2-(4-(4-((5-(4-(methylsulfonyl)phenyl)-[1,2,4]triazolo[1,5-a]pyridin-2-yl)amino)phenyl)piperazin-1-yl)acetamido)heptanamido)butanoyl)-4-hydroxy-N-(4-(4-methylthiazol-5-yl)benzyl)pyrrolidine-2-carboxamide], for which the IC50 is more than 10 µM.
With `Cc1ncsc1-c1ccc(CNC(=O)[C@@H]2C[C@@H](O)CN2C(=O)[C@@H](NC(=O)CCCCCCCNC(=O)CN2CCN(c3ccc(Nc4nc5cccc(-c6ccc(S(C)(=O)=O)cc6)n5n4)cc3)CC2)C(C)(C)C)cc1` [JA-124, (2S,4R)-1-((S)-3,3-Dimethyl-2-(8-(2-(4-(4-((5-(4-(methylsulfonyl)phenyl)-[1,2,4]triazolo[1,5-a]pyridin-2-yl)amino)phenyl)piperazin-1-yl)acetamido)octanamido)butanoyl)-4-hydroxy-N-(4-(4-methylthiazol-5-yl)benzyl)pyrrolidine-2-carboxamide] the figure was more than 10 µM; with `Cc1ncsc1-c1ccc(CNC(=O)[C@@H]2C[C@@H](O)CN2C(=O)[C@@H](NC(=O)CCCNC(=O)CN2CCN(c3ccc(Nc4nc5cccc(-c6ccc(S(C)(=O)=O)cc6)n5n4)cc3)CC2)C(C)(C)C)cc1` [JA-125, (2S,4R)-1-((S)-3,3-Dimethyl-2-(4-(2-(4-(4-((5-(4-(methylsulfonyl)phenyl)-[1,2,4]triazolo[1,5-a]pyridin-2-yl)amino)phenyl)piperazin-1-yl)acetamido)butanamido)butanoyl)-4-hydroxy-N-(4-(4-methylthiazol-5-yl)benzyl)pyrrolidine-2-carboxamide], more than 10 µM; with `Cc1ncsc1-c1ccc(CNC(=O)[C@@H]2C[C@@H](O)CN2C(=O)[C@@H](NC(=O)CNC(=O)CN2CCN(c3ccc(Nc4nc5cccc(-c6ccc(S(C)(=O)=O)cc6)n5n4)cc3)CC2)C(C)(C)C)cc1` [JA-126, (2S,4R)-1-((S)-3,3-Dimethyl-2-(2-(2-(4-(4-((5-(4-(methylsulfonyl)phenyl)-[1,2,4]triazolo[1,5-a]pyridin-2-yl)amino)phenyl)piperazin-1-yl)acetamido)acetamido)butanoyl)-4-hydroxy-N-(4-(4-methylthiazol-5-yl)benzyl)pyrrolidine-2-carboxamide], more than 10 µM.
Turning to `CS(=O)(=O)c1ccc(-c2cccc3nc(Nc4ccc(N5CCN(CC(=O)NCCOCCOCCOCCNc6cccc7c6C(=O)N(C6CCC(=O)NC6=O)C7=O)CC5)cc4)nn23)cc1` (stereo not shown) [JA-127, N-(2-(2-(2-(2-((2-(2,6-Dioxopiperidin-3-yl)-1,3-dioxoisoindolin-4-yl)amino)ethoxy)ethoxy)ethoxy)ethyl)-2-(4-(4-((5-(4-(methylsulfonyl)phenyl)-[1,2,4]triazolo[1,5-a]pyridin-2-yl)amino)phenyl)piperazin-1-yl)acetamide], the IC50 was more than 10 µM.
Regarding `Cc1ncsc1-c1ccc(CNC(=O)[C@@H]2C[C@@H](O)CN2C(=O)[C@@H](NC(=O)CCCCCCCCCCNC(=O)CN2CCN(c3ccc(Nc4nc5cccc(-c6ccc(S(C)(=O)=O)cc6)n5n4)cc3)CC2)C(C)(C)C)cc1` [JA-128, (2S,4R)-1-((S)-3,3-Dimethyl-2-(11-(2-(4-(4-((5-(4-(methylsulfonyl)phenyl)-[1,2,4]triazolo[1,5-a]pyridin-2-yl)amino)phenyl)piperazin-1-yl)acetamido)undecanamido)butanoyl)-4-hydroxy-N-(4-(4-methylthiazol-5-yl)benzyl)pyrrolidine-2-carboxamide], the IC50 was more than 10 µM.
On to `CS(=O)(=O)c1ccc(-c2cccc3nc(Nc4ccc(N5CCN(CC(=O)NCCOCCOCCOCCOCCOCCNc6cccc7c6C(=O)N(C6CCC(=O)NC6=O)C7=O)CC5)cc4)nn23)cc1` (stereo not shown) [JA-129, N-(17-((2-(2,6-Dioxopiperidin-3-yl)-1,3-dioxoisoindolin-4-yl)amino)-3,6,9,12,15-pentaoxaheptadecyl)-2-(4-(4-((5-(4-(methylsulfonyl)phenyl)-[1,2,4]triazolo[1,5-a]pyridin-2-yl)amino)phenyl)piperazin-1-yl)acetamide], for which the IC50 was more than 10 µM.
As for `Cc1ncsc1-c1ccc(CNC(=O)[C@@H]2C[C@@H](O)CN2C(=O)[C@@H](NC(=O)CCCCNC(=O)CN2CCN(c3ccc(Nc4nc5cccc(-c6ccc(S(C)(=O)=O)cc6)n5n4)cc3)CC2)C(C)(C)C)cc1` [JA-130, (2S,4R)-1-((S)-3,3-Dimethyl-2-(5-(2-(4-(4-((5-(4-(methylsulfonyl)phenyl)-[1,2,4]triazolo[1,5-a]pyridin-2-yl)amino)phenyl)piperazin-1-yl)acetamido)pentanamido)butanoyl)-4-hydroxy-N-(4-(4-methylthiazol-5-yl)benzyl)pyrrolidine-2-carboxamide], the figure is more than 10 µM; as for `Cc1ncsc1-c1ccc(CNC(=O)[C@@H]2C[C@@H](O)CN2C(=O)[C@@H](NC(=O)COCCOCCOCCNC(=O)CN2CCN(c3ccc(Nc4nc5cccc(-c6ccc(S(C)(=O)=O)cc6)n5n4)cc3)CC2)C(C)(C)C)cc1` [JA-131, (2S,4R)-1-((S)-2-(tert-Butyl)-17-(4-(4-((5-(4-(methylsulfonyl)phenyl)-[1,2,4]triazolo[1,5-a]pyridin-2-yl)amino)phenyl)piperazin-1-yl)-4,16-dioxo-6,9,12-trioxa-3,15-diazaheptadecanoyl)-4-hydroxy-N-(4-(4-methylthiazol-5-yl)benzyl)pyrrolidine-2-carboxamide], more than 10 µM; as for `Cc1ncsc1-c1ccc(CNC(=O)[C@@H]2C[C@@H](O)CN2C(=O)[C@@H](NC(=O)COCCNC(=O)CN2CCN(c3ccc(Nc4nc5cccc(-c6ccc(S(C)(=O)=O)cc6)n5n4)cc3)CC2)C(C)(C)C)cc1` [JA-132, (2S,4R)-1-((S)-3,3-Dimethyl-2-(2-(2-(2-(4-(4-((5-(4-(methylsulfonyl)phenyl)-[1,2,4]triazolo[1,5-a]pyridin-2-yl)amino)phenyl)piperazin-1-yl)acetamido)ethoxy)acetamido)butanoyl)-4-hydroxy-N-(4-(4-methylthiazol-5-yl)benzyl)pyrrolidine-2-carboxamide], more than 10 µM.
Take `Cc1ncsc1-c1ccc(CNC(=O)[C@@H]2C[C@@H](O)CN2C(=O)[C@@H](NC(=O)CCOCCOCCOCCOCCNC(=O)CN2CCN(c3ccc(Nc4nc5cccc(-c6ccc(S(C)(=O)=O)cc6)n5n4)cc3)CC2)C(C)(C)C)cc1` [JA-133, (2S,4R)-1-((S)-20-(tert-Butyl)-1-(4-(4-((5-(4-(methylsulfonyl)phenyl)-[1,2,4]triazolo[1,5-a]pyridin-2-yl)amino)phenyl)piperazin-1-yl)-2,18-dioxo-6,9,12,15-tetraoxa-3,19-diazahenicosan-21-oyl)-4-hydroxy-N-(4-(4-methylthiazol-5-yl)benzyl)pyrrolidine-2-carboxamide]: the IC50 is more than 10 µM.
With `Cc1ncsc1-c1ccc(CNC(=O)[C@@H]2C[C@@H](O)CN2C(=O)[C@@H](NC(=O)COCCOCCNC(=O)CN2CCN(c3ccc(Nc4nc5cccc(-c6ccc(S(C)(=O)=O)cc6)n5n4)cc3)CC2)C(C)(C)C)cc1` [JA-134, (2S,4R)-1-((S)-2-(tert-Butyl)-14-(4-(4-((5-(4-(methylsulfonyl)phenyl)-[1,2,4]triazolo[1,5-a]pyridin-2-yl)amino)phenyl)piperazin-1-yl)-4,13-dioxo-6,9-dioxa-3,12-diazatetradecanoyl)-4-hydroxy-N-(4-(4-methylthiazol-5-yl)benzyl)pyrrolidine-2-carboxamide] the figure was 4.31 µM.
